Test results as given in ChEMBL document CHEMBL1201862, “PubChem BioAssay data set” (2004).
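96-well plates; 48 h exposure; 5 concentrations. Endpoints by linear interpolation between flanking doses. Not reached: highest tested concentration assigned. GI50 marks 50% less growth.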 Calls of active or inactive are those of the source. Cut-off read from the data, not from the text of the source: active = GI50 up to about 1.1 µM and inactive = higher.

Columns and labels:
Test in all cases: NCI tumour cell line growth inhibition, 48 h
RPMI-8226 = tested on: RPMI-8226
SK-MEL-28 = tested on: SK-MEL-28
MDA-MB-435 = tested on: MDA-MB-435
KM12 = tested on: KM12
SN12C = tested on: SN12C
ACHN = tested on: ACHN
OVCAR-8 = tested on: OVCAR-8
SNB-19 = tested on: SNB-19
NCI-H460 = tested on: NCI-H460
TK-10 = tested on: TK-10
SF-539 = tested on: SF-539
UO-31 = tested on: UO-31
NCI/ADR-RES = tested on: NCI/ADR-RES
CCRF-CEM = tested on: CCRF-CEM
A549 = tested on: A549
U-251 = tested on: U-251
MDA-MB-231 = tested on: MDA-MB-231
SF-268 = tested on: SF-268
T47D = tested on: T47D
SW-620 = tested on: SW-620

Measured: GI50

CCCCN(CCCC)c1ccc(/N=N/c2ccc(S(=O)(=O)O)cc2)cc1
inactive: RPMI-8226 20.4 µM | SK-MEL-28 81.3 µM | MDA-MB-435 57.9 µM | KM12 12.8 µM | SN12C 25.4 µM | ACHN 46.7 µM | OVCAR-8 22 µM | SNB-19 75.9 µM | NCI-H460 34 µM | TK-10 67.8 µM | SF-539 16.7 µM | UO-31 72.3 µM | NCI/ADR-RES 24.4 µM | CCRF-CEM 18.4 µM | A549 39.8 µM | U-251 32.3 µM | MDA-MB-231 25.4 µM | SF-268 > 100 µM | T47D 25.5 µM | SW-620 33 µM

c1ccc2c(c1)Sc1ccccc1N2CC1CN2CCC1CC2 (stereo not given) [MEQUITAZINE]
inactive: RPMI-8226 2.99 µM | SK-MEL-28 2 µM | MDA-MB-435 2.8 µM | KM12 5.08 µM | SN12C 11.3 µM | ACHN 10.3 µM | OVCAR-8 13.4 µM | SNB-19 9.23 µM | NCI-H460 3.26 µM | TK-10 6.41 µM | SF-539 8.32 µM | UO-31 7.06 µM | NCI/ADR-RES 11.1 µM | CCRF-CEM 3.28 µM | A549 9.71 µM | U-251 4.24 µM | MDA-MB-231 3.8 µM | SF-268 7.36 µM | T47D 2.63 µM | SW-620 3.58 µM
